Tests used:
[1] = system: ovariectomized (OVX) mice; assay: Ovariectomy + sRANKL osteoporosis mouse model, micro-CT of distal femur; type: in vivo; conditions: 10 mg/kg i.p. once daily for 2 weeks
Method: (§1) FIGS. 6A-6E are the data depicting the mouse model of ovariectomy-induced osteoporosis, in which the ovariectomized (OVX) mice are respectively treated with sRANKL (1 mg/Kg) in the absence or presence of MLN4924 (10 mg/Kg) according to example 5.1 of the present disclosure. FIG. 6A: Micro computed-tomography (micro-CT) three-dimensional images of the distal femurs of mice respectively treated with the indicated treatments, in which the left panels represent transaxial plane, and the right panels represent coronal plane. FIGS. 6B-6D: micro-CT measurement of trabecular bone parameters, including bone volume/total volume (FIG. 6B), trabecular number (FIG. 6C), and trabecular space (FIG. 6D). FIG. 6E: Serum level of C-telopeptide of type 1 collagen (CTX-1) in control, OVX, OVX+sRANKL, and OVX+sRANKL+MLN4924 groups. Values are expressed as mean±SD, N=6 per group. *p<0.05; **p<0.01.
All experimental procedures were approved by the Institutional Animal Care and Use Committee of the Chang Gung Memorial Hospital at Chiayi and complied with the Guideline for the Care and Use of Laboratory Animals available through the National Academy of Sciences (IACUC number: 2013100102 and 2015103001). All efforts were made to minimize the suffering of the animals. C57BL/6J female mice (6-8 weeks old; obtained from BioLasco in Taiwan) were operated ovariectomy surgery (OVX). 48 hours later of OVX operation, sRANKL (1 mg/kg) or saline was injected intraperitoneally once daily for two days followed by intraperitoneal injection of MLN4924 (10 mg/kg) once daily for 2 weeks. Mice were sacrificed with CO2 asphyxiation, and the tibias and femurs were isolated therefrom. The tibias were subject to histochemistry assay, and the femurs were subject to bending test and tomographic analysis by MTS (Testresources, Shakopee, Minn.) and Skyscan 1272 (Bruker, Kontich, Belgium), respectively. Serum levels of cross linked C-telopeptide of type I collagen (CTX-1) (CEA665Mu) was measured by specific ELISA kit (USCN life science incorporation, Wuhan, Hubei, China).
The mice were first treated with specified treatments before subjecting to micro-computed tomography (pCT).
The effect of MLN4924 on trabecular bone parameters, including the bone volume/total tissue volume, trabecular number, and trabecular space in bone loss mice were then investigated, and results are presented in FIGS. 6B to 6D.

[2] = system: RAW264.7 cells; assay: Osteoclast formation from RAW264.7 cells, TRAP staining; type: cell-based, mouse; conditions: sRANKL-activated RAW264.7 cells, 7 days, FIG. 2A
Method: FIGS. 2A-2D are data collected from RAW264.7 cells respectively incubated in the medium containing sRANKL (50 ng/ml) and specified concentrations of MLN4924 for 7 days according to example 1.2 of the present disclosure. FIG. 2A: the photographs of TRAP staining depicting the differentiation of osteoclasts from RAW264.7 cells. FIG. 2B: after the differentiation of osteoclasts in Corning Osteo Surface, the cells were removed, and the resorbed areas for confirming osteoclast activity were analyzed by 1% toluidine blue staining. FIG. 2C: the culture medium is subject to Biovision Cathepsin K Activity Fluorometric Assay Kit for the analysis of cathepsin K activity. FIG. 2D: the effect of effective doses of MLN4924 on the viability of RAW264.7 cells is evaluated by MTT assay. Scale bar represents 100 μm. Data are expressed as mean±SD where *p<0.05.
RAW264.7 cells (murine monocytic/macrophage cell line) were cultured in Dulbecco's modified Eagle's medium high glucose (DMEM)(Gibco BRL, Gaithersburg, Md.) containing 10% fetal bovine serum (Gibco) and 1× GlutaMax (Gibco).
For in vitro osteoclast formation, the pre-osteoclasts and RAW264.7 cells were cultured in the medium containing 50 ng/ml sRANKL […] specified concentrations of MLN4924 for seven days. […]

[3] = system: ovariectomized (OVX) mice; assay: Serum CTX-1 ELISA in OVX + sRANKL mice; type: in vivo, mouse; conditions: 10 mg/kg i.p. once daily for 2 weeks, FIG. 6E
Method: as §1, with “FIG. 6E: Serum level of C-telopeptide of type 1 collagen (CTX-1) in control, OVX, OVX+sRANKL, and OVX+sRANKL+MLN4924 groups.” left out
All experimental procedures were approved by the Institutional Animal Care and Use Committee of the Chang Gung Memorial Hospital at Chiayi and complied with the Guideline for the Care and Use of Laboratory Animals available through the National Academy of Sciences (IACUC number: 2013100102 and 2015103001). […] Serum levels of cross linked C-telopeptide of type I collagen (CTX-1) (CEA665Mu) was measured by specific ELISA kit (USCN life science incorporation, Wuhan, Hubei, China).
Since CTX-1 serve as the biomarker for bone resorption, the level of CTX-1 in the serum of mice receiving specified treatments were then determined.

NS(=O)(=O)OC[C@@H]1C[C@@H](n2ccc3c(N[C@H]4CCc5ccccc54)ncnc32)C[C@@H]1O [MLN4924, (1S,2S,4R)-4-(4-((1S)-2,3-Dihydro-1H-inden-1-ylamino)-7H-pyrrolo(2,3-d)pyrimidin-7-yl)-2-hydroxycyclopentyl) methyl sulphamate]
trabecular bone loss at distal femoral metaphysis (micro-CT images) ([1]; FIG. 6A): could rescue the trabecular bone loss caused by OVX+sRANKL treatment
bone volume/total tissue volume ([1]; vs OVX+sRANKL group, FIG. 6B): significantly rescued the sRANKL-mediated trabecular bone loss
trabecular number ([1]; vs OVX+sRANKL group, FIG. 6C): significantly rescued the sRANKL-mediated trabecular bone loss
trabecular space ([1]; vs OVX+sRANKL group, FIG. 6D): significantly rescued the sRANKL-mediated trabecular bone loss
differentiation of osteoclasts (TRAP staining) [2]: significantly inhibited
serum CTX-1 level [3]: significantly rescued the OVX+sRANKL-stimulated serum CTX-1 level upregulation
